Assay results as given in the CheMixHub viscosity set.

Assay: xn = mol fraction of the nth substance listed

COC(=O)CCCCC(=O)OC + C1CCOC1
viscosity [mPa·s], 101 kPa
Details	293.15 K	298.15 K	303.15 K	308.15 K	313.15 K	318.15 K	323.15 K
x1 = 0.1	0.6562	0.6229	0.5909	0.5598	0.5294	0.4989	0.4706
x1 = 0.2	0.8354	0.7852	0.7403	0.6982	0.6588	0.6205	0.5877
x1 = 0.3	1.042	0.9731	0.9111	0.8539	0.8024	0.7543	0.7132
x1 = 0.3994	1.277	1.183	1.1	1.026	0.958	0.906	0.8459
x1 = 0.5001	1.545	1.42	1.311	1.217	1.134	1.063	0.9929
x1 = 0.5909	1.811	1.652	1.517	1.4	1.299	1.206	1.132
x1 = 0.5999	1.838	1.676	1.541	1.421	1.315	1.221	1.146
x1 = 0.7003	2.163	1.956	1.78	1.63	1.506	1.382	1.302
x1 = 0.7999	2.514	2.255	2.042	1.858	1.7	1.556	1.458
x1 = 0.8937	2.866	2.555	2.298	2.08	1.892	1.731	1.609
x1 = 0.8996	2.888	2.574	2.314	2.095	1.905	1.742	1.619

C1CCCC1 + C1CCCCC1
303.15 K, 101 kPa
Details	viscosity [mPa·s]
x1 = 0.1022	0.7604
x1 = 0.2029	0.6988
x1 = 0.2998	0.6457
x1 = 0.3944	0.599
x1 = 0.4949	0.5545
x1 = 0.5917	0.5159
x1 = 0.6949	0.4788
x1 = 0.7843	0.4494
x1 = 0.8966	0.4147

NCCO + OCCO
101.33 kPa
Details	viscosity [mPa·s]
293.15 K, x2 = 0.1246	29.94
293.15 K, x2 = 0.2055	32.9
293.15 K, x2 = 0.2907	35.07
293.15 K, x2 = 0.4172	36.01
293.15 K, x2 = 0.496	34.47
293.15 K, x2 = 0.5176	33.73
293.15 K, x2 = 0.6654	29.06
293.15 K, x2 = 0.701	28.14
293.15 K, x2 = 0.789	25.17
293.15 K, x2 = 0.8248	23.8
293.15 K, x2 = 0.8691	22.48
293.15 K, x2 = 0.9427	21.11
293.15 K, x2 = 0.9527	20.92
303.15 K, x1 = 0.155	16.74
303.15 K, x1 = 0.303	19.61
313.15 K, x1 = 0.155	11.41
313.15 K, x1 = 0.303	13.08
323.15 K, x1 = 0.155	8.112
323.15 K, x1 = 0.303	9.172

OCc1ccccc1 + CC(C)O
viscosity [mPa·s], 101 kPa
Details	x1 = 0.076	x1 = 0.1562	x1 = 0.2409	x1 = 0.3305	x1 = 0.4254	x1 = 0.5262	x1 = 0.6334	x1 = 0.7476	x1 = 0.8695
298.15 K	2.033	2.167	2.366	2.607	2.88	3.203	3.57	3.975	4.423
303.15 K	1.776	1.896	2.06	2.258	2.486	2.756	3.06	3.4	3.785
308.15 K	1.532	1.649	1.796	1.975	2.172	2.406	2.675	2.975	3.304
313.15 K	1.338	1.432	1.556	1.701	1.87	2.07	2.303	2.557	2.828

CCC(=O)CC + CCCCOC(C)=O
viscosity [mPa·s], 101 kPa
Details	x2 = 0.0808	x2 = 0.1652	x2 = 0.2542	x2 = 0.349	x2 = 0.4451	x2 = 0.5459	x2 = 0.65	x2 = 0.7613	x2 = 0.8771
298.15 K	0.478	0.5	0.523	0.543	0.558	0.573	0.59	0.614	0.645
303.15 K	0.445	0.464	0.485	0.5	0.513	0.526	0.541	0.562	0.589
308.15 K	0.419	0.437	0.455	0.471	0.483	0.495	0.509	0.528	0.554
313.15 K	0.395	0.411	0.429	0.441	0.452	0.461	0.474	0.491	0.514

O=CNc1ccccc1 + c1ccncc1
298.15 K, 101 kPa
Details	viscosity [mPa·s]
x1 = 0.06989	1.089
x1 = 0.1339	1.335

CCC(=O)CC + ClC=C(Cl)Cl
viscosity [mPa·s], 101.33 kPa
Details	x2 = 0.1126	x2 = 0.2042	x2 = 0.2941	x2 = 0.4591	x2 = 0.5988	x2 = 0.6807	x2 = 0.7837	x2 = 0.8997
298.15 K	0.439	0.463	0.489	0.532	0.57	0.582	0.598	0.614
308.15 K	0.402	0.426	0.449	0.491	0.523	0.539	0.558	0.574
318.15 K	0.379	0.401	0.422	0.462	0.494	0.508	0.525	0.544

CCCCCCCCCCCCCC[P+](CCCCCC)(CCCCCC)CCCCCC.[O-]c1ccccc1 + O
Details	viscosity [mPa·s]
298.15 K, 100 kPa, x2 = 0.69	183

CCN(CC)C(C)=O + O
298.16 K, 101 kPa
Details	viscosity [mPa·s]
x2 = 0.065	1.32
x2 = 0.1626	1.56
x2 = 0.255	1.86
x2 = 0.3529	2.26
x2 = 0.4791	2.92
x2 = 0.6036	3.7
x2 = 0.6894	4.22
x2 = 0.7465	4.38
x2 = 0.7702	4.36
x2 = 0.8188	4.2
x2 = 0.9049	2.45

CCC(C)CC(C)C (configuration not stated) + C1C[C@@H]2[C@H]3CC[C@H](C3)[C@@H]2C1
viscosity [mPa·s], 100 kPa
Details	x2 = 0.1017	x2 = 0.2008	x2 = 0.3005	x2 = 0.4002	x2 = 0.5006	x2 = 0.6001	x2 = 0.7001	x2 = 0.8012	x2 = 0.8999
293.15 K	0.538	0.616	0.717	0.847	1.007	1.216	1.478	1.84	2.322
298.15 K	0.511	0.582	0.674	0.792	0.937	1.126	1.361	1.685	2.114
303.15 K	0.487	0.552	0.636	0.744	0.876	1.048	1.261	1.552	1.937
308.15 K	0.465	0.524	0.602	0.7	0.822	0.979	1.171	1.435	1.781
313.15 K	0.445	0.5	0.571	0.662	0.772	0.916	1.092	1.331	1.645

CCCC[n+]1ccn(C)c1.C[C@H](N)C(=O)[O-] + OCc1ccccc1
101 kPa
Details	viscosity [mPa·s]
298.15 K, x1 = 0.4864	18.75
313.15 K, x1 = 0.6945	18.65

CCC(=O)CC + CCCCN(CCCC)CCCC
viscosity [mPa·s], 101 kPa
Details	298.15 K	303.15 K	308.15 K
x2 = 0.05	0.468	0.442	0.419
x2 = 0.1004	0.498	0.47	0.444
x2 = 0.1502	0.533	0.502	0.473
x2 = 0.2006	0.566	0.531	0.502
x2 = 0.25	0.6	0.563	0.529
x2 = 0.2996	0.636	0.595	0.559
x2 = 0.3995	0.71	0.662	0.621
x2 = 0.4998	0.79	0.734	0.684
x2 = 0.6004	0.874	0.809	0.752
x2 = 0.7005	0.965	0.889	0.824
x2 = 0.7998	1.065	0.978	0.901
x2 = 0.8462	1.109	1.016	0.934
x2 = 0.8953	1.16	1.06	0.976
x2 = 0.9489	1.212	1.106	1.017

C1CCCC1 + CC(C)=O
viscosity [mPa·s], 101.33 kPa
Details	293.15 K	298.15 K	303.15 K
x1 = 0.0453	0.318	0.308	0.29
x1 = 0.0935	0.319	0.304	0.291
x1 = 0.1869	0.319	0.304	0.289
x1 = 0.2786	0.324	0.309	0.294
x1 = 0.3922	0.333	0.318	0.303
x1 = 0.517	0.344	0.327	0.311
x1 = 0.6026	0.357	0.338	0.321
x1 = 0.6876	0.367	0.347	0.332
x1 = 0.795	0.385	0.365	0.347
x1 = 0.9016	0.408	0.39	0.37
x1 = 0.9511	0.419	0.397	0.377
